The values below come from patent US20230118688A1, “1H-PYRAZOLO[4,3-d]PYRIMIDINE COMPOUNDS AS TOLL-LIKE RECEPTOR 7 (TLR7) AGONISTS” (BRISTOL-MYERS SQUIBB COMPANY, priority 2020, published 2023).

For one experiment, the system named is CD69. The experiment can be described thus: Induction of CD69 in human whole blood. Format: cell-based. The conditions noted are these: 17 h, CD69 surface staining, 100% set to 1 uM resiquimod. The procedure: The induction of Type I interferon (IFN) MX-1 genes and the B-cell activation marker CD69 are downstream events that occur upon activation of the TLR7 pathway. The following is a human whole blood assay that measures their induction in response to a TLR7 agonist.
Heparinized human whole blood was harvested from human subjects and treated with test TLR7 agonist compounds at 1 mM. The blood was diluted with RPMI 1640 media and Echo was used to predot 10 nL per well giving a final concentration of 1 uM (10 nL in 10 uL of blood). After mixing on a shaker for 30 sec, the plates were covered and placed in a 37° C. chamber for o/n=17 hrs. Fixing/lysis buffer was prepared (5×->1× in H2O, warm at 37° C.; Cat #BD 558049) and kept the perm buffer (on ice) for later use.
For surface markers staining (CD69): prepared surface Abs: 0.045 ul hCD14-FITC (ThermoFisher Cat #MHCD1401)+0.6 ul hCD19-ef450 (ThermoFisher Cat #48-0198-42)+1.5 ul hCD69-PE (cat #BD555531)+0.855 ul FACS buffer. Added 3 ul/well, spin1000 rpm for 1 min and mixed on shaker for 30 sec, put on ice for 30 mins. Stop stimulation after 30 minutes with 70 uL of prewarmed 1× fix/lysis buffer and use Feliex mate to resuspend (15 times, change tips for each plate) and incubate at 37C for 10 minutes.
Centrifuge at 2000 rpm for 5 minutes aspirate with HCS plate washer, mix on shaker for 30 sec and then wash with 70 uL in dPBS and pelleted 2×s (2000 rpm for 5 min) and 50 ul wash in FACS buffer pelleted 1×s(2000 rpm for 5 min). Mix on shaker for 30 sec. For Intracellular markers staining (MX-1): Add 50 ul of BD Perm buffer III and mix on shaker for 30 sec. Incubate on ice for 30 minutes (in the dark). Wash with 50 uL of FACS buffer 2× (spin @2300 rpm×5 min after perm) followed by mixing on shaker for 30 sec. Resuspended in 20 ul of FACS buffer containing MX1 antibody ( ) (4812)-Alexa 647: Novus Biologicals #NBP2-43704AF647) 20 ul FACS bf+0.8 ul hlgG+0.04 ul MX-1. Spin 1000 rpm for 1 min, mix on shaker for 30se and the samples were incubated at RT in the dark for 45 minutes followed by washing 2×FACS buffer (spin @2300 rpm×5 min after perm). Resuspend 20 ul (35 uL total per well) of FACS buffer and cover with foil and place in 4° C. to read the following day. Plates were read on iQuePlus. The results were loaded into toolset and IC50 curves are generated in curve master. The y-axis 100% is set to 1 uM of resiquimod.

For a further experiment, the target named is T1, human TLR7 (Homo sapiens, UniProt Q9NYK1).
T1 construct: host or cells: HEK-Blue TLR7 cells (engineered human embryonic kidney cells)
T1 sequence (Q9NYK1 27-1049): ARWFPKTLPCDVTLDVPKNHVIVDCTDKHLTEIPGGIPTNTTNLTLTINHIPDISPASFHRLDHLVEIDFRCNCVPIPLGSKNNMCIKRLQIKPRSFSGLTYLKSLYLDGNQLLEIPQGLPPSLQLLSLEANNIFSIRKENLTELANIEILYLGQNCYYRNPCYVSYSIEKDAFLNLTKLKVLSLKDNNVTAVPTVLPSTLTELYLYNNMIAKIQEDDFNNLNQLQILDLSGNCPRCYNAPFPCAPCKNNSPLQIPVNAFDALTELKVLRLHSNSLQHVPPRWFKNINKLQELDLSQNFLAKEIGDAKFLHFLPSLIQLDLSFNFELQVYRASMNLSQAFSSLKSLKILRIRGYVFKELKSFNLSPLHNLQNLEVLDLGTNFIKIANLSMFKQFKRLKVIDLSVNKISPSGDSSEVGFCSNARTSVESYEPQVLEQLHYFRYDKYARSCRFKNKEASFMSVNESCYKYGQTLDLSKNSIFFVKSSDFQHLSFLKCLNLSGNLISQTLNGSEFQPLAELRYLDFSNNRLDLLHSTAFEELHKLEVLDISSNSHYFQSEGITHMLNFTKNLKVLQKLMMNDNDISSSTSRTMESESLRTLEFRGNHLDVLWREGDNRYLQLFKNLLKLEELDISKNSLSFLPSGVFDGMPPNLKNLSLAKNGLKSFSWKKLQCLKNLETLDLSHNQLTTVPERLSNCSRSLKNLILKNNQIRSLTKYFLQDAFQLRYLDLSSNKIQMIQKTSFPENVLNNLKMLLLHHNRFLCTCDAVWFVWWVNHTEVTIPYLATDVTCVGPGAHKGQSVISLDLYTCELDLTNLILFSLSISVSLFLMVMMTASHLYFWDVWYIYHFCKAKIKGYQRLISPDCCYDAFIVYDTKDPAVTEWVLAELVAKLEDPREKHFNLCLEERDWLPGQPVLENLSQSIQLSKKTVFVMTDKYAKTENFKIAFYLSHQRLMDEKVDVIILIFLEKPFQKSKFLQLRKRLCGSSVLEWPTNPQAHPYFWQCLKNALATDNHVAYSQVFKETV
The experiment can be described thus: Human TLR7 agonist activity reporter assay (HEK-Blue TLR7 cells, SEAP reporter). The experiment is classed as cell-based. Particulars: 18 h treatment. The method in brief:
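HEK-Blue TLR7 cells (15,000/well) treated with compound for 18 h at 37 °C, 5% CO2. Secreted SEAP measured with Quanti-Blue, 30 min, OD 620 nm. EC50 taken as concentration giving half-maximal response between baseline and maximum.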

The mark [1] stands for this setting: average where assay repeated, Table A1, read-out: hWB CD69 EC50.
Where [2] appears, read: average where assay repeated, Table A1, read-out: hTLR7 Agonism EC50.
Where [3] appears, read: Table A2, read-out: hWB CD69 EC50.
Setting [4] is: Table A2, read-out: hTLR7 Agonism EC50.

The structures appear in SMILES notation. Where two headings read alike, the source gives them in different places. A value given as a limit tells only on which side of the number the result lay.

Take `COc1ccc(CNC2CCOCC2)cc1Cn1ncc2nc(N)nc(NCC3CC4(CC4)C3)c21` [Compound 150, 1-[(2-methoxy-5-{[(oxan-4-yl)amino]methyl}phenyl)-methyl]-N7-({spiro[2.3]-hexan-5-yl}methyl)-1H-pyrazolo[4,3-d]pyrimidine-5,7-diamine]: the EC50 in the experiment on CD69 (setting [1]) turned out to be 298 nM; at human TLR7 (setting [2]), 387 nM.
As to `CCCCNc1nc(N)nc2cnn(Cc3cc(CN4CC(F)(F)C4)ccc3OC)c12` [Compound 151, N7-butyl-1-({5-[(3,3-difluoro-azetidin-1-yl)methyl]-2-methoxyphenyl}methyl)-1H-pyrazolo[4,3-d] pyrimidine-5,7-diamine], the EC50 in the experiment on CD69 (setting [1]) was at least 1000 nM; on human TLR7 (setting [2]), 768 nM.
Turning to `COc1ccc(C(=O)NC2CCN(C)CC2)cc1Cn1ncc2nc(N)nc(NCC3CC4(CC4)C3)c21` [Compound 152, 3-({5-amino-7-[({spiro-[2.3]hexan-5-yl}methyl)-amino]-1H-pyrazolo[4,3-d]pyrimidin-1-yl}methyl)-4-methoxy-N-(1-methylpiperidin-4-yl)benzamide], the values for the EC50 in the experiment on CD69 (setting [1]) and at human TLR7 (setting [2]) were 159 nM and 467 nM, respectively.
For `CCC[C@@H](CCO)Nc1nc(N)nc2cnn(Cc3cc(C(=O)N[C@@H]4CCN(C)C4)ccc3OC)c12` [Compound 154, 3-[(5-amino-7-{[(3S)-1-hydroxyhexan-3-yl]amino}-1H-pyrazolo[4,3-d]pyrimidin-1-yl)methyl]-4-methoxy-N-[(3R)-1-methylpyrrolidin-3-yl] benzamide] the same measures were 144 nM and 280 nM.
As for `CCC[C@@H](CCO)Nc1nc(N)nc2cnn(Cc3cc(CN4CCNCC4)ccc3OC)c12` [Compound 155, (3S)-3-{[5-amino-1-({2-methoxy-5-[(piperazin-1-yl)-methyl]phenyl}methyl)-1H-pyrazolo[4,3-d]pyrimidin-7-yl]amino}hexan-1-ol], the figures for the EC50 with CD69 (setting [1]) and at human TLR7 (setting [2]) were 129 nM and 150 nM, respectively.
The matching figures for `CCC[C@@H](CCO)Nc1nc(N)nc2cnn(Cc3cc(CN4CCN(CCO)CC4)ccc3OC)c12` [Compound 156, (3S)-3-({5-amino-1-[(5-{[4-(2-hydroxyethyl)piperazin-1-yl]methyl}-2-methoxy-phenyl)methyl]-1H-pyrazolo[4,3-d]pyrimidin-7-yl}amino)hexan-1-ol]: 73.6 nM and 56.9 nM.
The matching figures for `CCC[C@@H](CCO)Nc1nc(N)nc2cnn(Cc3cc(CN4CCN(C)CC4)ccc3OC)c12` [Compound 157, (S)-3-((5-amino-1-(2-methoxy-5-((4-methylpiperazin-1-yl)methyl)benzyl)-1H-pyrazolo[4,3-d]pyrimidin-7-yl)amino)hexan-1-ol]: 13.2 nM and 22.5 nM.
For `CCC[C@@H](CCO)Nc1nc(N)nc2cnn(Cc3cc(CN4CC5(CN(C)C5)C4)ccc3OC)c12` [Compound 158, (3S)-3-[(5-amino-1-{[2-methoxy-5-({6-methyl-2,6-diazaspiro[3.3]heptan-2-yl}methyl)phenyl]methyl}-1H-pyrazolo[4,3-d]pyrimidin-7-yl)amino]-hexan-1-ol] the same measures were 199 nM and 604 nM.
For `CCC[C@@H](CCO)Nc1nc(N)nc2c(C)nn(Cc3cc(CN4CCN(CCO)CC4)ccc3OC)c12` [Compound 159, (3S)-3-({5-amino-1-[(5-{[4-(2-hydroxyethyl)piperazin-1-yl]methyl}-2-methoxyphenyl)methyl]-3-methyl-1H-pyrazolo[4,3-d]pyrimidin-7-yl}amino)hexan-1-ol], the EC50 with CD69 (setting [1]) was 37.1 nM; on human TLR7 (setting [2]), 98.6 nM.
For `COc1ccc(CN2CC(OC)C2)cc1Cn1ncc2nc(N)nc(NCC[C@H](O)C3CC3)c21` [Compound 160, (1S)-3-{[5-amino-1-({2-methoxy-5-[(3-methoxy-azetidin-1-yl)methyl]phenyl}-methyl)-1H-pyrazolo[4,3-d]pyrimidin-7-yl]amino}-1-cyclopropylpropan-1-ol] the same measures were 151 nM and 740 nM.
Regarding `CCC[C@@H](CCO)Nc1nc(N)nc2c(C)nn(Cc3cc(CN4CCNCC4)ccc3OC)c12` [Compound 161, (3S)-3-{[5-amino-1-({2-methoxy-5-[(piperazin-1-yl)methyl]phenyl}methyl)-3-methyl-1H-pyrazolo[4,3-d]pyrimidin-7-yl]amino}hexan-1-ol], the EC50 with CD69 (setting [1]) worked out at 132 nM; on human TLR7 (setting [2]) it was 340 nM.
For `CCC[C@@H](CCO)Nc1nc(N)nc2c(C)nn(Cc3cc(CNC4CCOCC4)ccc3OC)c12` [Compound 162, (3S)-3-({5-amino-1-[(2-methoxy-5-{[(oxan-4-yl)amino]methyl}phenyl)methyl]-3-methyl-1H-pyrazolo[4,3-d]pyrimidin-7-yl}amino)-hexan-1-ol] the same measures were 90.3 nM and 294 nM.
The matching figures for `CC[C@@H](CCO)Nc1nc(N)nc2cnn(Cc3cc(CN4CCN(C)CC4)ccc3OC)c12` [Compound 163, (3S)-3-{[5-amino-1-({2-methoxy-5-[(4-methylpiperazin-1-yl)methyl]phenyl}methyl)-1H-pyrazolo[43-d]pyrimidin-7-yl]amino}pentan-l-ol]: 119 nM and 267 nM.
For `CCC[C@@H](CCO)Nc1nc(N)nc2c(C)nn(Cc3cc(CN4CCN(C)CC4)ccc3OC)c12` [Compound 164, (3S)-3-{[5-amino-1-({2-methoxy-5-[(4-methylpiperazin-1-yl)methyl]phenyl}methyl)-3-methyl-1H-pyrazolo[4,3-d]pyrimidin-7-yl]amino}hexan-1-ol] the same measures were 21.7 nM and 48.5 nM.
In the case of `CCC[C@@H](CCO)Nc1nc(N)nc2cnn(Cc3cc(CNC4CCOCC4)c(F)cc3OC)c12` [Compound 165, (3S)-3-({5-amino-1-[(4-fluoro-2-methoxy-5-{[(oxan-4-yl)amino]-methyl}phenyl)methyl]-1H-pyrazolo[4,3-d]pyrimidin-7-yl}amino)hexan-1-ol], the EC50 in the experiment on CD69 (setting [3]) amounted to 27.3 nM; on human TLR7 (setting [4]) it was 89.9 nM.
The matching figures for `CCC[C@@H](CCO)Nc1nc(N)nc2cnn(Cc3cc(CN4CC(O)C4)c(F)cc3OC)c12` [Compound 166, 1-({5-[(5-amino-7-{[(3S)-1-hydroxyhexan-3-yl]amino}-1H-pyrazolo[4,3-d]pyrimidin-1-yl)methyl]-2-fluoro-4-methoxyphenyl}-methyl)azetidin-3-ol]: 34.2 nM and 116 nM.
